The text below walks through data of patent US9586961B2, “Homopiperazine derivatives as protein tyrosine kinase inhibitors and pharmaceutical use thereof” (LEO PHARMA A/S, priority 2010, dated 2017).

Format in all cases: biochemical
One assay concerns the target T1, JAK2 (Homo sapiens, UniProt O60674).
T1 construct: All four purified enzymes contain only the catalytic domain; His (N); purchased Carna Biosciences, Inc; host or cells: baculovirus expression system
Kind of assay: JAK2 kinase assay (HTRF, inhibition of phosphorylation of a synthetic peptide). The following applies: catalytic domain, His-tag; 4 μM ATP (Km); read-out: JAK2 kinase inhibitory activity (EC50). The method, boiled down: (§1)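 Baculovirus-expressed catalytic domains (GST-JAK1 aa 850-1154, GST-TYK2 aa 871-1187, His-JAK2, His-JAK3) phosphorylate 1 μM biotin-TK peptide 20-30 min at RT in 50 mM Hepes pH 7.0 with ATP at Km: JAK1 7 μM, JAK2 4 μM, JAK3 2 μM, TYK2 13 μM; 0.75% DMSO. Stopped with EDTA, HTRF read overnight.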

A further assay has as its target T2, TYK2 (Homo sapiens, UniProt P29597).
T2 construct: JAK1 (aa 850-1154) and TYK2 (aa 871-1187) are expressed with an N-terminally fused GST-tag; GST (N); purchased Carna Biosciences, Inc; host or cells: baculovirus expression system
T2 sequence (P29597 871-1187): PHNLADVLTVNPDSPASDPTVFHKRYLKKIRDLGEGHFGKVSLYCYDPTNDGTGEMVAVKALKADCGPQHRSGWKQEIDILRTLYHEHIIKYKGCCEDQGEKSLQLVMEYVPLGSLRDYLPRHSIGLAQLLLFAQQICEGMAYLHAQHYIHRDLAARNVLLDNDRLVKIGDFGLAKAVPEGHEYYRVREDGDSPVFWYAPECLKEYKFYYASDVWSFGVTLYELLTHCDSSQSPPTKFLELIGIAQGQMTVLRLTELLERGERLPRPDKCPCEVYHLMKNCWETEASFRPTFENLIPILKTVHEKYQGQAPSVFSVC
Kind of assay: TYK2 kinase assay (HTRF, inhibition of phosphorylation of a synthetic peptide). The following applies: catalytic domain aa 871-1187, GST-tag; 13 μM ATP (Km); read-out: TYK2 kinase inhibitory activity (EC50). Put shortly: as §1
Background: Time-resolved FRET reads energy transfer from a long-lived donor to a nearby acceptor.

Another assay concerns the target T3, JAK3 (Homo sapiens, UniProt P52333).
T3 construct: All four purified enzymes contain only the catalytic domain; His (N); purchased Carna Biosciences, Inc; host or cells: baculovirus expression system
Kind of assay: JAK3 kinase assay (HTRF, inhibition of phosphorylation of a synthetic peptide). The settings on record: catalytic domain, His-tag; 2 μM ATP (Km); read-out: JAK3 kinase inhibitory activity (EC50). The method, boiled down: as §1

A further assay has as its target T4, JAK1 (Homo sapiens, UniProt P23458).
T4 construct: JAK1 (aa 850-1154) and TYK2 (aa 871-1187) are expressed with an N-terminally fused GST-tag; GST (N); purchased Carna Biosciences, Inc; host or cells: baculovirus expression system
Description: JAK1 kinase assay (HTRF, inhibition of phosphorylation of a synthetic peptide). The settings on record: catalytic domain aa 850-1154, GST-tag; 7 μM ATP (Km); read-out: JAK1 kinase inhibitory activity (EC50). The method, boiled down: as §1

Bounds are passed on as bounds.

Usually EC50 stands for the concentration giving half of the maximal effect.

T1 sequence (O60674 849-1124 limits assumed): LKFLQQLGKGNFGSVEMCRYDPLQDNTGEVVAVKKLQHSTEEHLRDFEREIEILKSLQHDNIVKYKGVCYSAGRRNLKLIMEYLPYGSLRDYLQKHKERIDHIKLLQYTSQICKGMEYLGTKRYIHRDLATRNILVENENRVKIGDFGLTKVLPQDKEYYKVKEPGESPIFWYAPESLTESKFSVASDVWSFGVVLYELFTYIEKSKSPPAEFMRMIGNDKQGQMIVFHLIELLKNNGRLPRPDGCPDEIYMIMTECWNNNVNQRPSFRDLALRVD
T3 sequence (P52333 822-1111 limits assumed): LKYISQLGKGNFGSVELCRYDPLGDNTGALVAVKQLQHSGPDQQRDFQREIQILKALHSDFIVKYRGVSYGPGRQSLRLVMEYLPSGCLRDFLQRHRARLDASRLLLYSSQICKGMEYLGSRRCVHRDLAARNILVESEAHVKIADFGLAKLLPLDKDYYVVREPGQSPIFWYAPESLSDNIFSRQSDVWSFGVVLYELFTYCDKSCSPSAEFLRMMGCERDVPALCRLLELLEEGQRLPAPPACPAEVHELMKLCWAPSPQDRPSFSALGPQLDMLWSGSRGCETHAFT
T4 sequence (P23458 850-1154): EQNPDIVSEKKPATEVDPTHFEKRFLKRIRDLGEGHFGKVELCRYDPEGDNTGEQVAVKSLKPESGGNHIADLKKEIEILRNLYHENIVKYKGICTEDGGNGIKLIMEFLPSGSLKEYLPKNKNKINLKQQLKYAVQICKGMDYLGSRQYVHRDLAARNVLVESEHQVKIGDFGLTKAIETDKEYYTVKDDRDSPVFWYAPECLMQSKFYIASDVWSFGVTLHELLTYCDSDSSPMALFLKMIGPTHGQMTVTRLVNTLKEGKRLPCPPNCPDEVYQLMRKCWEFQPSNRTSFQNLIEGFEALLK

Regarding `NS(=O)(=O)c1ccc(C(=O)N2CCN(c3ncnc4[nH]ccc34)CC3(CC3)C2)cc1` [Example 31, 4-[5-(7H-pyrrolo[2,3-d]pyrimidin-4-yl)-5,8-diazaspiro[2.6]nonane-8-carbonyl]benzenesulfonamide], the EC50 on JAK2 was less than 0.1 µM; on TYK2, 0.1 to 1 µM; at JAK3, less than 0.1 µM; at JAK1 it was less than 0.1 µM.

Take `CS(=O)(=O)c1ccc(CC(=O)N2CCN(c3ncnc4[nH]ccc34)CC3(CC3)C2)cc1` [Example 55, 2-(4-methylsulfonylphenyl)-1-[5-(7H-pyrrolo[2,3-d]pyrimidin-4-yl)-5,8-diazaspiro[2.6]nonan-8-yl]ethanone]: the EC50 at JAK2 was less than 0.1 µM; on TYK2, more than 1 µM; on JAK3 it was 0.1 to 1 µM; at JAK1 it was less than 0.1 µM.

Take `Cn1cc(S(N)(=O)=O)cc1C(=O)N1CCN(c2ncnc3[nH]ccc23)CC2(CC2)C1` [Example 36, 1-methyl-5-[5-(7H-pyrrolo[2,3-d]pyrimidin-4-yl)-5,8-diazaspiro[2.6]nonane-8-carbonyl]pyrrole-3-sulfonamide]: the EC50 is 0.1 to 1 µM at JAK2, more than 1 µM at TYK2, 0.1 to 1 µM on JAK3 and 0.1 to 1 µM on JAK1.

For the compound `COc1cc(OC)cc(C(=O)N2CCN(c3ncnc4[nH]ccc34)CC3(CC3)C2)c1` [Example 43, (3,5-dimethoxyphenyl)-[5-(7H-pyrrolo[2,3-d]pyrimidin-4-yl)-5,8-diazaspiro[2.6]nonan-8-yl]methanone], the EC50 on JAK2, on TYK2, at JAK3 and on JAK1 was more than 1 µM in each case.

With `CN(C)S(=O)(=O)c1ccc(C(=O)N2CCN(c3ncnc4[nH]ccc34)CC3(CC3)C2)cc1` [Example 33, N,N-dimethyl-4-[5-(7H-pyrrolo[2,3-d]pyrimidin-4-yl)-5,8-diazaspiro[2.6]nonane-8-carbonyl]benzenesulfonamide], the EC50 at JAK2 is 0.1 to 1 µM; on TYK2, more than 1 µM; on JAK3 it was 0.1 to 1 µM; at JAK1, 0.1 to 1 µM.

For `CN(C1CCCCC1)S(=O)(=O)N1CCN(c2ncnc3[nH]ccc23)CC2(CC2)C1` [Example 105, N-cyclohexyl-N-methyl-5-(7H-pyrrolo[2,3-d]pyrimidin-4-yl)-5,8-diazaspiro[2.6]nonane-8-sulfonamide], the EC50 at JAK2 was 0.1 to 1 µM; on TYK2, more than 1 µM; on JAK3, more than 1 µM; at JAK1, 0.1 to 1 µM.

In the case of `N#Cc1ccc(C(=O)N2CCCN(c3ncnc4[nH]ccc34)CC23CC3)o1` [Example 258, 5-[5-(7H-pyrrolo[2,3-d]pyrimidin-4-yl)-5,9-diazaspiro[2.6]nonane-9-carbonyl]furan-2-carbonitrile], the EC50 at JAK2 was less than 0.1 µM; on TYK2 it was 0.1 to 1 µM; on JAK3, 0.1 to 1 µM; on JAK1 it was less than 0.1 µM.

Take `N#Cc1ccc(C(=O)N2CCN(c3ncnc4[nH]ccc34)CC3(CC3)C2)s1` [Example 51, 5-[5-(7H-pyrrolo[2,3-d]pyrimidin-4-yl)-5,8-diazaspiro[2.6]nonane-8-carbonyl]thiophene-2-carbonitrile]: the EC50 on JAK2 was less than 0.1 µM; at TYK2, 0.1 to 1 µM; at JAK3, less than 0.1 µM; on JAK1, less than 0.1 µM.

In the case of `CC1CN(c2ncnc3[nH]ccc23)CC2(CC2)CN1C(=O)CC1CCCC1` (stereo not shown) [Example 285, 2-cyclopentyl-1-[7-methyl-5-(7H-pyrrolo[2,3-d]pyrimidin-4-yl)-5,8-diazaspiro[2.6]nonan-8-yl]ethanone], the EC50 on JAK2 is 0.1 to 1 µM; on TYK2, more than 1 µM; at JAK3, more than 1 µM; at JAK1, 0.1 to 1 µM.

On to `O=C(C1CCCCC1)N1CCCN(c2ncnc3[nH]ccc23)CC12CC2` [Example 93, cyclohexyl-[5-(7H-pyrrolo[2,3-d]pyrimidin-4-yl)-5,9-diazaspiro[2.6]nonan-9-yl]methanone], for which the EC50 is less than 0.1 µM at JAK2, 0.1 to 1 µM at TYK2, 0.1 to 1 µM on JAK3 and less than 0.1 µM at JAK1.
